The subject of assay [1] is Interleukin 6 (IL-6) secretion in C2C12 cells. Put plainly: IL-6 secretion (ELISA) of differentiated C2C12 cells exposed to pro-inflammatory cytokine mix (cytomix). The format is cell-based. The method, then: C2C12 Myoblasts, purchased from the American Type Culture Collection (ATCC) (ref. CRL-1772), were seeded at 8000 cells per well in a 96 well plate (Greiner, Kremsmünster, Austria) using a DMEM Glutamax 4.5 g D-glucose (Gibco, ref 31966021) supplemented with foetal bovine serum (FBS) 10% (PanBiotech, ref P190902), 1% PenStrep (Biowest) and 1% HEPES (Biowest). Cells were then differentiated for 6 days using a differentiation medium (DMEM Glutamax 4.5 g D-glucose (Gibco, ref 31966021), 2% Horse serum (Thermofisher, ref 160501229) 1% PenStrep and 1% HEPES). All the media were sterilized with a 0.45 μm filter unit (VWR). […] The medium was collected and an ELISA for Interleukin-6 were performed following the instruction provided by the supplier (Proteintech ref. KE10007). Finally, the absorbance at a wavelength of 450 nm was measured using a microplate plate reader (Fluostar Optima, BMG Labtech).
(In general: ELISA stands for enzyme-linked immunosorbent assay.)

The subject of assay [2] is inflammation in certain cell-based models. Particulars: cited from earlier work.

Like-named read-outs stand apart in the source and are kept apart here.

On to `CC(O)CC(=O)[O-].[Na+]` (racemic) [BHB, DL-β-Hydroxybutyric acid sodium salt], for which the “impact on IL-6 secretion” value in assay [1] (BHB 5 μM alone, cytomix) is on record as −0.007%. Besides, in assay [1] (higher dose of BHB alone, cytomix), the “reduction of IL-6 secretion” value was determined as 32%. Besides, the “concentration at which the anti-inflammatory effect of BHB was observed” value in assay [2] (PMC6402511) is more than 250 µM; in assay [2] (PMID: 25686106) it was “above 2 mM”.
In the case of `O=c1oc2cc(O)ccc2c2ccc(O)cc12` [Urolithin A], the “reduction of IL-6 secretion” value is on record as 25% in assay [1] (UA 6.25 μM alone, 24 h pre-treatment then cytomix 24 h) and 60% in assay [1] (UA 12.5 μM alone, 24 h pre-treatment then cytomix 24 h).

The values are drawn from US20260216127A1, “COMBINATIONS OF A UROTHILIN AND A KETONE BODY” (Amazentis SA, priority 2022, published 2026).
